Data: the supplement of paper PMC11061612

Legend:
Lapatinib = compound: CS(=O)(=O)CCNCc1ccc(-c2ccc3ncnc(Nc4ccc(OCc5cccc(F)c5)c(Cl)c4)c3c2)o1 [Lapatinib]; details: max 10 µM
How it was run: (§1)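 Plates with 1536 wells received cancer cell lines in 7.5 μl of DMEM/F12 or RPMI containing 10% FBS. After 24 hours at 37°C and 5% CO2, cells were dosed for 72 hours with final DMSO typically 0.2%, and viability was read by CellTiter-Glo 2.0 luminescence scaled between blank-well and DMSO-well means. The single-agent IC50 was taken from a logistic fit of the dose responses made with a non-linear mixed effects model, that logistic curve having two parameters.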

AZD8186 = compound: C[C@@H](Nc1cc(F)cc(F)c1)c1cc(C(=O)N(C)C)cc2c(=O)cc(N3CCOCC3)oc12 [AZD8186]; details: max 3 µM
How it was run: as §1

Dasatinib = compound: CC1=C(C(=CC=C1)Cl)NC(=O)C2=CN=C(S2)NC3=CC(=NC(=N3)C)N4CCN(CC4)CCO [Dasatinib]; details: max 2 µM
How it was run: as §1

Venetoclax = compound: CC1(C)CCC(CN2CCN(c3ccc(C(=O)NS(=O)(=O)c4ccc(NCC5CCOCC5)c([N+](=O)[O-])c4)c(Oc4cnc5[nH]ccc5c4)c3)CC2)=C(c2ccc(Cl)cc2)C1 [Venetoclax]; details: max 1 µM
How it was run: as §1

AZD6738 = compound: C[C@@H]1COCCN1C2=NC(=NC(=C2)C3(CC3)[S@](=N)(=O)C)C4=C5C=CNC5=NC=C4 [AZD6738]; details: max 10 µM
How it was run: as §1

Alisertib = compound: COc1cc(Nc2ncc3c(n2)-c2ccc(Cl)cc2C(c2c(F)cccc2OC)=NC3)ccc1C(=O)O [Alisertib]; details: max 10 µM
How it was run: as §1

AZD4320 = compound: CN(CC[C@H](CSC1=CC=CC=C1)NC2=C(C=C(C=C2)S(=O)(=O)NC(=O)C3=CC=C(C=C3)N4CCC(CC4)[C@H](C5=CC=CC=C5C6=CC=C(C=C6)Cl)O)S(=O)(=O)C(F)(F)F)CCO [AZD4320]; details: max 1 µM
How it was run: as §1

Palbociclib = compound: CC(=O)c1c(C)c2cnc(Nc3ccc(N4CCNCC4)cn3)nc2n(C2CCCC2)c1=O [Palbociclib]; details: max 10 µM
How it was run: as §1

AZD7648 = compound: Cc1cc2ncnn2cc1Nc1ncc2c(n1)n(C1CCOCC1)c(=O)n2C [AZD7648]; details: max 10 µM
How it was run: as §1

SG3199 = compound: CC1=CN2[C@@H](C1)C=NC3=CC(=C(C=C3C2=O)OC)OCCCCCOC4=C(C=C5C(=C4)N=C[C@@H]6CC(=CN6C5=O)C)OC [SG3199]; details: max 0.001 µM
How it was run: as §1

Savolitinib = compound: C[C@@H](c1ccc2nccn2c1)n1nnc2ncc(-c3cnn(C)c3)nc21 [Savolitinib]; details: max 1 µM
How it was run: as §1

SN-38 = compound: CCc1c2c(nc3ccc(O)cc13)-c1cc3c(c(=O)n1C2)COC(=O)[C@]3(O)CC [SN-38]; details: max 0.3 µM
How it was run: as §1

Gefitinib = compound: COc1cc2ncnc(Nc3ccc(F)c(Cl)c3)c2cc1OCCCN1CCOCC1 [Gefitinib]; details: max 10 µM
How it was run: as §1

Olaparib = compound: O=C(c1cc(Cc2n[nH]c(=O)c3ccccc23)ccc1F)N1CCN(C(=O)C2CC2)CC1 [Olaparib]; details: max 10 µM
How it was run: as §1

Doxorubicin = compound: COc1cccc2c1C(=O)c1c(O)c3c(c(O)c1C2=O)C[C@@](O)(C(=O)CO)C[C@@H]3O[C@H]1C[C@H](N)[C@H](O)[C@H](C)O1 [Doxorubicin]; details: max 1 µM
How it was run: as §1

Taselisib = compound: Cc1nc(-c2cn3c(n2)-c2ccc(-c4cnn(C(C)(C)C(N)=O)c4)cc2OCC3)n(C(C)C)n1 [Taselisib]; details: max 10 µM
How it was run: as §1

AZD0156 = compound: CN(C)CCCOc1ccc(-c2ccc3ncc4c(c3c2)n(C2CCOCC2)c(=O)n4C)cn1 [AZD0156]; details: max 3 µM
How it was run: as §1

Prexasertib = compound: COc1cccc(OCCCN)c1-c1cc(Nc2cnc(C#N)cn2)n[nH]1 [Prexasertib]; details: max 1 µM
How it was run: as §1

Trametinib = compound: CC(=O)Nc1cccc(-n2c(=O)n(C3CC3)c(=O)c3c(Nc4ccc(I)cc4F)n(C)c(=O)c(C)c32)c1 [Trametinib]; details: max 1 µM
How it was run: as §1

AZD1775 = compound: C=CCn1c(=O)c2cnc(Nc3ccc(N4CCN(C)CC4)cc3)nc2n1-c1cccc(C(C)(C)O)n1 [AZD1775]; details: max 3 µM
How it was run: as §1

AZD1390 = compound: CC(C)n1c(=O)n(C)c2cnc3cc(F)c(-c4ccc(OCCCN5CCCCC5)nc4)cc3c21 [AZD1390]; details: max 0.3 µM
How it was run: as §1

Selumetinib = compound: Cn1cnc2c(F)c(Nc3ccc(Br)cc3Cl)c(C(=O)NOCCO)cc21 [Selumetinib]; details: max 10 µM
How it was run: as §1

Crizotinib = compound: C[C@@H](Oc1cc(-c2cnn(C3CCNCC3)c2)cnc1N)c1c(Cl)ccc(F)c1Cl [Crizotinib]; details: max 10 µM
How it was run: as §1

Capivasertib = compound: C1CN(CCC1(C(=O)N[C@@H](CCO)C2=CC=C(C=C2)Cl)N)C3=NC=NC4=C3C=CN4 [Capivasertib]; details: max 10 µM
How it was run: as §1

AZD2811 = compound: CCN(CCO)CCCOc1ccc2c(Nc3cc(CC(=O)Nc4cccc(F)c4)[nH]n3)ncnc2c1 [AZD2811]; details: max 1 µM
How it was run: as §1

AZD5991 = compound: Cc1c2c(nn1C)CSCc1cc(n(C)n1)CSc1cc(c3ccccc3c1)OCCCc1c(C(=O)O)n(C)c3c-2c(Cl)ccc13 [AZD5991]; details: max 1 µM
How it was run: as §1

AZD5153 = compound: COc1nnc2ccc(N3CCC(c4ccc(OCCN5CCN(C)C(=O)[C@H]5C)cc4)CC3)nn12 [AZD5153]; details: max 1 µM
How it was run: as §1

MK-2206 = compound: NC1(c2ccc(-c3nc4ccn5c(=O)[nH]nc5c4cc3-c3ccccc3)cc2)CCC1 [MK-2206]; details: max 10 µM
How it was run: as §1

| Cell Line | IC50, cell viability 72 h (Lapatinib) [µM] | IC50, cell viability 72 h (AZD8186) [µM] | IC50, cell viability 72 h (Dasatinib) [µM] | IC50, cell viability 72 h (Venetoclax) [µM] | IC50, cell viability 72 h (AZD6738) [µM] | IC50, cell viability 72 h (Alisertib) [µM] | IC50, cell viability 72 h (AZD4320) [µM] | IC50, cell viability 72 h (Palbociclib) [µM] | IC50, cell viability 72 h (AZD7648) [µM] | IC50, cell viability 72 h (SG3199) [µM] | IC50, cell viability 72 h (Savolitinib) [µM] | IC50, cell viability 72 h (SN-38) [µM] | IC50, cell viability 72 h (Gefitinib) [µM] | IC50, cell viability 72 h (Olaparib) [µM] | IC50, cell viability 72 h (Doxorubicin) [µM] | IC50, cell viability 72 h (Taselisib) [µM] | IC50, cell viability 72 h (AZD0156) [µM] | IC50, cell viability 72 h (Prexasertib) [µM] | IC50, cell viability 72 h (Trametinib) [µM] | IC50, cell viability 72 h (AZD1775) [µM] | IC50, cell viability 72 h (AZD1390) [µM] | IC50, cell viability 72 h (Selumetinib) [µM] | IC50, cell viability 72 h (Crizotinib) [µM] | IC50, cell viability 72 h (Capivasertib) [µM] | IC50, cell viability 72 h (AZD2811) [µM] | IC50, cell viability 72 h (AZD5991) [µM] | IC50, cell viability 72 h (AZD5153) [µM] | IC50, cell viability 72 h (MK-2206) [µM] |
| --- | --- | --- | --- | --- | --- | --- | --- | --- | --- | --- | --- | --- | --- | --- | --- | --- | --- | --- | --- | --- | --- | --- | --- | --- | --- | --- | --- | --- |
| EFM-192A (Breast Carcinoma) | 1.36 | > 3 | > 2 | > 1 | > 10 | > 10 | > 1 | > 10 | > 10 | > 0.001 | > 1 | > 0.3 | > 10 | > 10 | > 1 | 0.475 | > 3 | > 1 | > 1 | > 3 | > 0.3 | > 10 | > 10 | > 10 | > 1 | 0.706 | > 1 |  |
| ETK-1 (Biliary Tract Carcinoma) | 6.78 | > 3 | 0.58 | > 1 | 6.85 | 6.57 | > 1 | > 10 | > 10 | > 0.001 | > 1 | 0.227 | > 10 | > 10 | > 1 | 3.33 | > 3 | 0.563 | > 1 | 1.02 | > 0.3 | > 10 | > 10 | > 10 | > 1 | > 1 | > 1 | > 10 |
| GDM-1 (Acute Myeloid Leukemia) | > 10 | 1.94 | 0.00937 | 0.392 | 7.15 | 0.123 | 0.0834 | 8.09 | 5.19 | > 0.001 | > 1 | 0.00415 | > 10 | > 10 | 0.326 | 0.121 | > 3 | 0.0402 | > 1 | 0.435 | > 0.3 | > 10 | 1.16 | 8.68 | 0.0656 | > 1 | 0.0648 |  |
| HCC1143 (Breast Carcinoma) | > 10 | > 3 | > 2 | > 1 | 2.87 | > 10 | > 1 | > 10 | > 10 | > 0.001 | > 1 | 0.237 | > 10 | > 10 | > 1 | 5.95 | > 3 | 0.019 | > 1 | 1.05 | > 0.3 | > 10 | > 10 | > 10 | > 1 | > 1 | > 1 | > 10 |
